Test results published in patent US8044204B2, “8-methoxy-9H-isothiazolo[5,4-b]quinoline-3,4-diones and related compounds as anti-infective agents” (Achillion Pharmaceuticals, Inc., priority 2005, dated 2011).
Values after ≈ are worked out from the molar mass of the structure shown. Counter-ions that a name gives are not always drawn. Like-named read-outs stand apart in the source and are kept apart here.

Legend:
Assay type in all cases: cell-based
S. aureus ATCC 29213 = test: Minimum Inhibitory Concentration (MIC) assay, S. aureus; conditions: Staphylococcus aureus, ATCC29213; broth microdilution; read-out: MIC against S. Aureus
Method in brief: (§1)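 NCCLS broth microdilution in Mueller-Hinton II broth, two-fold dilutions giving final 0.125–128 μg/mL, inoculum ~1×10^6 cfu/mL. Incubated in ambient air at 37 °C for 18–24 h. MIC read as lowest concentration with no visible growth.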

MRSA strain ATCC 700699 = test: Minimum Inhibitory Concentration (MIC) assay, Methicillin Resistant S. Aureus; conditions: Staphylococcus aureus
Text: It has been unexpectedly discovered that substitution of compounds of Formula I and Formula II with a methoxy substituent at the R8 position increases the anti-microbial activity of the compound against Methicillin resistant Staphylococcus Aureus bacteria while at the same time decreasing the cellular toxicity of the compound. The simultaneous increase in compound activity and decrease in compound toxicity provides a greater therapeutic range for compounds of Formula I and Formula II in which R8 is methoxy; i.e. the range of doses of such compounds that will produce beneficial effects without harmful side effects is increased. […] Therapeutic range is determined using a standard assay of cytotoxicity such as the Alamar blue assay provided in Example 10.
The antimicrobial activity of the compounds of the invention may be evaluated by a number of methods, including the following visual minimum inhibitory concentration (MIC) assay. This assay determines the minimum concentration of compound required to inhibit growth of a bacterial strain.
Minimum Inhibitory Concentration (MIC) Assay
Whole-cell antibacterial activity is determined by broth microdilution using conditions recommended by the NCCLS (see National Committee for Clinical Laboratory Standards. 2001. Performance standards for antimicrobial susceptibility testing: 11th informational supplement. Vol. 21, no. 1, M100-S11. National Committee for Clinical Laboratory Standards, Wayne, Pa.). Test compounds are dissolved in DMSO and diluted 1:50 in Mueller-Hinton II broth (Becton-Dickinson) to produce a 256 μg/ml stock solution. In a 96-well microtiter plate, the compound solution is serially two-fold diluted in Mueller-Hinton II broth. After the compounds are diluted, a 50 μl aliquot of the test organism (˜1×10^6 cfu/mL) is added to each well of the microtiter plate. The final test concentrations ranges from 0.125-128 μg/mL. Inoculated plates are incubated in ambient air at 37° C. for 18 to 24 hours. The organisms selected for testing included laboratory strains S. aureus ATCC 29213 and E. coli ATCC 25922 (strains purchased from American Type Culture Collection, Manassas, Va.), S. aureus FQR700699, and Paeruginosa 27853. The minimum inhibitory concentration (MIC) is determined as the lowest concentration of compound that inhibited visible growth of the test organism.

E. coli ATCC 25922 = test: Minimum Inhibitory Concentration (MIC) assay, E. coli; conditions: Escherichia coli, ATCC25922; broth microdilution; read-out: MIC against E. coli
Method in brief: as §1

[1] = Cell viability staining with Alamar Blue (cytotoxicity CC50), Hep2; conditions: human
Procedure: To determine whether the microcidal effect observed against S. aureus and E. coli is specific to bacterial cells, compounds are screened for cell viability effects on several human cell types.
Optimal cell density is first determined by plating cells in a 96-well plate standard sterile tissue culture plates in 100 μl media, 10% FBS at six cell densities from 500 cells/well to 15,000 cells/well. A cell free well containing only media is used as a control. Cells are incubated at 37° C. in a 5% CO2 incubator for 24 hours. 10% culture volume (10 ul) of Alamar Blue (Biosource, DAL1100, 100 mL) is then added. Cells are incubated at 37° C. in a 5% CO2 incubator and read in a Victor V plate reader, 544 nm excitation, 590 nm emission, at 3, 4, and 24 hours after the addition of Alamar Blue. The cell number vs. change in fluorescence is plotted to determine linearity of signal vs. cell number. The optimal density varies between 500-15,000 cells/well depending on the specific cell type. The optimal density is selected based on the highest number of cells that is still in the linear response range.
Determination of Compound Cytotoxicity
Cells are plated at optimal cell density in a standard sterile tissue culture 96 well plate, and incubated at 37° C. O/N in a 5% CO2 incubator. 12 to 48 hours post-plating media is removed. The cells are washed 1 or 2 times with 1×PBS and replaced with fresh media containing the test compound in 1% DMSO. 24 to 72 hours after addition of compound, the media is removed, and the cells washed 1 to 2 times with 1×PBS. Fresh media containing 1/10 volume of Alamar Blue is then added. Plates are incubated 4 hours at 37° C. in a 5% CO2 incubator and read in a Victor V plate reader, 544 nm excitation, 590 nm emission.
Compounds are diluted to 20 micromolar in 1% DMSO and media and screened in duplicate to obtain single concentration cytotoxicity data. Eight concentration points from 0.78 micromolar to 100 micromolar, run in duplicate, are used to determine cyclotoxicity CC50 values. Cells with 1% DMSO and media are used as a negative control, compounds having a known CC50 against a particular cell type are used as positive controls.
The change in fluorescence vs. concentration of test compound is plotted to determine the cytotoxicity of the compound.
Sample media conditions, optimal plating densities, and positive control compounds for two cell types screened are presented in Table III.

in vitro = conditions: Chinese hamster
[2] = R6 = F, R8 = Methoxy compounds, MRSA ATCC 700699, read-out: MRSA MIC
[3] = Hep2 cells (ATCC CCL-23), R6 = F, R8 = Methoxy compounds, Hep2 ATCC CCL-23, read-out: hep2 CC50
[4] = Hep2 cells (ATCC CCL-23), R6 = F, R8 = H compounds, Hep2 ATCC CCL-23, read-out: hep2 CC50
[5] = broth microdilution, read-out: MIC against Methicillin Resistant S. Aureus
[6] = R6 = F, R8 = H compounds, MRSA ATCC 700699, read-out: MRSA MIC

SMILES | MIC (S. aureus ATCC 29213) [µg/mL] | MIC (MRSA strain ATCC 700699; [2]) [µg/mL] | MIC (E. coli ATCC 25922) [µg/mL] | CC50 ([1]; R6 = F, R8 = Methoxy compounds, Hep2 ATCC CCL-23, read-out: hep2 CC50) [µM] | MIC (MRSA strain ATCC 700699; read-out: MRSA MIC) [µg/mL] | CC50 [1, 3] [µM] | CC50 [1, 4] [µM] | MIC (MRSA strain ATCC 700699; [5]) [µg/mL] | MIC (MRSA strain ATCC 700699; [6]) [µg/mL] | CC50 (in vitro) [µM] | CC50 [1] [µM]
COc1c(N2CCNCC2)c(F)cc2c(=O)c3c(=O)[nH]sc3n(C3CC3)c12 [Compound 38, 9-cyclopropyl-6-fluoro-8-methoxy-7-(piperazin-1-yl)isothia-zolo[5,4-b]quinoline-3,4(2H,9H)-dione] | ≤ 1 | 4.8 (≈ 12.3 µM) | ≤ 1 | 27 |  |  |  |  |  |  | 
COc1c(N2CC3CCCNC3C2)c(F)cc2c(=O)c3c(=O)[nH]sc3n(C3CC3)c12 (stereo not drawn) [Compound 45, 9-cyclopropyl-6-fluoro-8-methoxy-7-(octahydro-pyrrolo[3,4-b]pyridin-6-yl)isothia-zolo[5,4-b]quinoline-3,4(2H,9H)-dione, hydrochloride] | ≤ 1 |  | ≤ 1 |  | 2 | 93 |  |  |  |  | 
O=c1[nH]sc2c1c(=O)c1cc(F)c(N3CC4CCCNC4C3)cc1n2C1CC1 (stereo not drawn) [Compound 46, 9-cyclopropyl-6-fluoro-7-(octahydro-pyrrolo[3,4-b]pyridin-6-yl)isothia-zolo[5,4-b]quinoline-3,4(2H,9H)-dione, hydrochloride] | ≤ 1 |  | ≤ 1 |  | 4 |  | 4.7 |  |  |  | 
COc1c(N2CCC(N(C)C)C2)c(F)cc2c(=O)c3c(=O)[nH]sc3n(C3CC3)c12 (stereo not drawn) [Compound 49, 9-cyclopropyl-7-(3-(dimethyl-amino)pyrrolidin-1-yl)-6-fluoro-8-methoxy-isothiazolo[5,4-b]quinoline-3,4(2H,9H)-dione] | ≤ 1 | 4 (≈ 9.56 µM) | ≤ 1 |  |  | 68 |  |  |  |  | 
CC(C)(N)[C@@H]1CCN(c2cc3c(cc2F)c(=O)c2c(=O)[nH]sc2n3C2CC2)C1 [Compound 52, (R)-7-(3-(2-aminopropan-2-yl)pyrrolidin-1-yl)-9-cyclopropyl-6-fluoroisothia-zolo[5,4-b]quinoline-3,4(2H,9H)-dione, hydrochloride] | ≤ 1 |  | ≤ 1 |  | 0.38 |  | 0.55 | ≤ 1 |  |  | 
COc1c(N2CC[C@@H](C(C)(C)N)C2)c(F)cc2c(=O)c3c(=O)[nH]sc3n(C3CC3)c12 [Compound 53, (R)-7-(3-(2-aminopropan-2-yl)pyrrolidin-1-yl)-9-cyclopropyl-6-fluoro-8-methoxyiso-thiazolo[5,4-b]quinoline-3,4(2H,9H)-dione] | ≤ 1 | 0.1 (≈ 0.231 µM) | ≤ 1 |  |  | 8.5 |  | ≤ 1 |  |  | 
COc1c(N2CC[C@H](C(C)(C)N)C2)c(F)cc2c(=O)c3c(=O)[nH]sc3n(C3CC3)c12 [Compound 58, (S)-7-(3-(2-aminopropan-2-yl)pyrrolidin-1-yl)-9-cyclopropyl-6-fluoro-8-methoxyiso-thiazolo[5,4-b]quinoline-3,4(2H,9H)-dione] | ≤ 1 | 1.5 (≈ 3.47 µM) | ≤ 1 |  |  | 61 |  |  |  |  | 
CC(C)(N)[C@H]1CCN(c2cc3c(cc2F)c(=O)c2c(=O)[nH]sc2n3C2CC2)C1 [Compound 61, (S)-7-(3-(2-aminopropan-2-yl)pyrrolidin-1-yl)-9-cyclopropyl-6-fluoroiso-thiazolo[5,4-b]quinoline-3,4(2H,9H)-dione] | ≤ 1 |  |  |  |  |  | 6.1 |  | 16 (≈ 39.8 µM) |  | 
COc1c(N2CC[C@@H](CN)C2)c(F)cc2c(=O)c3c(=O)[nH]sc3n(C3CC3)c12 [Compound 63, (S)-7-(3-(aminomethyl)-pyrrolidin-1-yl)-9-cyclopropyl-6-fluoro-8-methoxyiso-thiazolo[5,4-b]quinoline-3,4(2H,9H)-dione] | ≤ 1 | 0.42 (≈ 1.04 µM) | ≤ 1 |  |  | 11 |  | ≤ 1 |  |  | 
NC[C@@H]1CCN(c2cc3c(cc2F)c(=O)c2c(=O)[nH]sc2n3C2CC2)C1 [Compound 64, (S)-7-(3-(aminomethyl)-pyrrolidin-1-yl)-9-cyclopropyl-6-fluoroiso-thiazolo[5,4-b]quinoline-3,4(2H,9H)-dione] | ≤ 1 |  |  |  |  |  | 3.1 |  | 1 (≈ 2.67 µM) |  | 
COc1c(N2CC[C@H](CN)C2)c(F)cc2c(=O)c3c(=O)[nH]sc3n(C3CC3)c12 [Compound 67, (R)-7-(3-(aminomethyl)-pyrrolidin-1-yl)-9-cyclopropyl-6-fluoro-8-methoxyiso-thiazolo[5,4-b]quinoline-3,4(2H,9H)-dione] | ≤ 1 | 0.25 (≈ 0.618 µM) | ≤ 1 |  |  | 11 |  | ≤ 1 |  |  | 
NC[C@H]1CCN(c2cc3c(cc2F)c(=O)c2c(=O)[nH]sc2n3C2CC2)C1 [Compound 68, (R)-7-(3-(aminomethyl)-pyrrolidin-1-yl)-9-cyclopropyl-6-fluoroiso-thiazolo[5,4-b]quinoline-3,4(2H,9H)-dione] | ≤ 1 |  | ≤ 1 |  |  |  | 2.3 |  | 1 (≈ 2.67 µM) |  | 
CNC(C)(C)[C@@H]1CCN(c2c(F)cc3c(=O)c4c(=O)[nH]sc4n(C4CC4)c3c2OC)C1 [Compound 76, (R)-9-cyclo-propyl-6-fluoro-8-methoxy-7-(3-(2-(methyl-amino)propan-2-yl)pyrrolidin-1-yl)isothia-zolo[5,4-b]quinoline-3,4(2H,9H)-dione] | ≤ 1 | 0.13 (≈ 0.291 µM) | ≤ 1 |  |  | 27 |  | ≤ 1 |  |  | 
CNC(C)(C)[C@@H]1CCN(c2cc3c(cc2F)c(=O)c2c(=O)[nH]sc2n3C2CC2)C1 [Compound 80, (R)-9-cyclo-propyl-6-fluoro-7-(3-(2-(methylamino)propan-2-yl)-pyrrolidin-1-yl)isothia-zolo[5,4-b]quinoline-3,4(2H,9H)-dione] | ≤ 1 |  | ≤ 1 |  |  |  | 0.57 |  | 2 (≈ 4.8 µM) |  | 
CN(C)C1CCN(c2cc3c(cc2F)c(=O)c2c(=O)[nH]sc2n3C2CC2)C1 (stereo not drawn) [Compound 114, 9-cyclo-propyl-7-(3-(dimethyl-amino)pyrrolidin-1-yl)-6-fluoroiso-thiazolo[5,4-b]quinoline-3,4(2H,9H)-dione] |  |  |  |  |  |  | 3 |  | 2 (≈ 5.15 µM) |  | 
CC(C)(C)c1ccc(C(O)CCCN2CCC(C(O)(c3ccccc3)c3ccccc3)CC2)cc1 (stereo not drawn) [Terfenadine, reference compound] |  |  |  |  |  |  |  |  |  | 4.3 to 6.5 | 3 to 5
